We go through 23 compounds from patent publication US10703701B2, “Fluoroalkyl, fluoroalkoxy, phenoxy, heteroaryloxy, alkoxy, and amine 1,4-benzoquinone derivatives for treatment of oxidative stress disorders” (PTC Therapeutics, Inc., priority 2015, dated 2020).

Each structure is given as a SMILES string.

The subject of assay [1] is Q7 cells (ST HDH Q7/7; immortalized mouse striatal cells). Description: Q7 cystine deprivation cell survival assay (96-well, Calcein AM). Conditions: for EC50: Mus musculus, rescue of Q7 cells from cystine deprivation, 18 hours, Calcein AM fluorescence, 96-well. In kind it is cell-based. The protocol:
(§1) In neuronal cells excess extracellular glutamate inhibits the cystine/glutamate antiporter leading to intracellular cysteine depletion, GSH depletion, ROS production and cell death, a phenomenon termed oxidative glutamate toxicity or oxytosis. Q7 cells (ST HDH Q7/7; immortalized mouse striatal cells) challenged with cystine-free media recapitulate this phenotype. An initial screen was performed to identify compounds effective in rescuing Q7 cells from death resulting from cystine deprivation. This method is further described in Yonezawa et al., J. Neurochem 67, 566-573 (1996), and Li et al., J Neurosci., 23, 5816-5826 (2003).
(§2) DMEM (Catalog no. 11995-040), DMEM without Cystine (Catalog no. 21013-024), Penicillin-streptomycin mix, L-Glutamine and Pyruvate were purchased from Gibco. Fetal Bovine Serum was obtained from Mediatech, Inc. Mouse striatum derived ST HDH Q7/7 (Q7) cells were obtained from Dr. M. MacDonald (Massachusetts General Hospital). Methionine and Vitamin K2 were purchased from Sigma Aldrich. Calcein AM was purchased from Anaspec. Geneticin (G418) Sulfate was purchased from Santa Cruz Biotechnology. Cell culture medium (Growth medium) was made by combining 50 mL Fetal Bovine Serum, 100 U/mL penicillin, 100 microgram/mL streptomycin and 400 microgram/mL Geneticin (G418) Sulfate; DMEM was added to make the volume up to 500 mL. Assay medium (without Cystine) was made by combining 50 mL Fetal Bovine Serum, 100 U/mL penicillin, 100 microgram/mL streptomycin, 4 mM L-Glutamine, 1 mM Pyruvate and 30 mg/L Methionine; DMEM without Cystine was added to make the volume up to 500 mL. During the course of the experiments, these solutions were stored at 4° C. The cells were grown in 10-cm diameter tissue culture-treated dishes. Every fourth day, the cells were subcultured by trypsinization and re-seeding at a cell density of 500,000 cells per dish.
(§3) Test samples were supplied in 1.5 mL glass vials. The compounds were diluted with an appropriate volume of DMSO to result in a 1 mM stock solution. Once dissolved, they were stored at −20° C.
Test samples were screened according to the following protocol:
Q7 cells were cultured routinely as described herein. For cell survival assays, cells were seeded in clear 96-well tissue culture-treated polystyrene plates by resuspending a cell suspension at a density of 100,000 cells/mL in growth medium, then dispensing 100 microliters of cell suspension per well using an electronic multichannel pipette, corresponding to 10,000 cells/well. The cell-containing plates were incubated 5 hours at 33° C. in an atmosphere with 95% humidity and 5% CO2 to allow attachment of the cells to the culture plate.
Test compounds were thawed, and 2 microliters of a 1 mM stock solution was diluted in a microtiter plate well containing 98 microliters of 10% DMSO in H2O, resulting in a 20 micromolar master solution. Serial dilutions from the master solution were made in 10% DMSO. The period between the single dilution steps was kept as short as possible (generally less than 30 seconds). 5 hours after cell seeding into the 96-well assay plate, the cell culture medium was removed by inverting the plates and gently patted onto paper towel. The plates were washed once with 100 microliters of PBS containing Ca^++ and Mg^++. PBS containing Ca^++ and Mg^++ were removed by inverting the plates and gently patted onto a paper towel. After washing the wells, 100 microliters of assay medium without Cystine was dispensed and then treated with 10 microliters of the various compound dilutions in triplicates. Final concentration of DMSO in the well was 1%.
After medium change to cystine-free medium and compound addition, cell plates were incubated at 33° C. in an atmosphere of 5% CO2 and 95% humidity. 18 hours later, the medium from all plates was removed by inverting the plates and gently tapping the plate onto a paper towel. […]

Assay [2] shares this test system. Kind of assay: 384-Well Cell Titer Glo (CTG) Q7 Cystine Deprivation Survival Assay. It counts as cell-based. Conditions: read-out: Q7 Cystine Free CTG 384 CSA (EC50). The procedure:
as §1
as §2, with “21013-024), PBS (Phosphate buffered saline),” for “21013-024),”, “Cell Titer Glo 2.0” for “Calcein AM”, “Promega.” for “Anaspec.”
as §3
Test Samples were Screened According to the Following Protocol:
Q7 cells were cultured routinely as described herein. For 384-well cell survival assays, cells were seeded in clear bottom, black wall 384-well tissue culture-treated polystyrene plates by resuspending a cell suspension at a density of 50,000 cells/mL in growth medium, then dispensing 60 microliters of cell suspension per well using either an electronic multichannel pipette or a Multidrop™ Combi Reagent Dispenser (ThermoFisher Scientific), corresponding to 3,000 cells/well. The cell-containing plates were incubated 5 hours at 33° C. in an atmosphere with 95% humidity and 5% CO2 to allow attachment of the cells to the culture plate.
5 hours after cell seeding into the 384-well assay plate, the cell culture medium was replaced by washing 2 times with 70 microliters/well PBS (without Ca^++ and Mg^++) using a BioTek ELx405 plate washer. After the final aspiration, 60 microliters/well of assay medium (without cystine) was added using the Multidrop Combi Reagent Dispenser. Within 45 minutes, test compounds were then added to varying final concentrations using the Tecan D300e Digital Dispenser, with subsequent back-filling with DMSO diluent to a final concentration of 0.3% (v/v).
After medium change to cystine-free medium and compound addition, cell plates were incubated at 33° C. in an atmosphere of 5% CO2 and 95% humidity. 18 hours later, the plates were equilibrated to room temperature for 15 minutes. Then, 10 microliters/well of room temperature Cell Titer Glo 2.0 reagent was added using the Multidrop Combi Reagent Dispenser. After 15 minutes of incubation at room temperature, the luminescence (100 ms integration time) per well was determined using the BioTek Synergy plate reader. Data was imported into Microsoft Excel. […]
On the technique in general: Cellular ATP, detected with luciferase, serves as a proxy for viable cell number.

Setting [3] is: rescue of Q7 cells from cystine deprivation, 18 hours, Cell Titer Glo luminescence, 384-well.

On to `CC1=C(C)C(=O)C(CCCCCCCCOCC(F)(F)F)=C(C)C1=O` [Example 1, 2,3,5-trimethyl-6-(8-(2,2,2-trifluoroethoxy)octyl)cyclohexa-2,5-diene-1,4-dione], for which the half-maximal effective concentration (EC50) in assay [1] was 500 to 1000 nM; in assay [2] (setting [3]), 100 to 500 nM. For `CC1=C(C)C(=O)C(CCCCCCCCC(F)(F)F)=C(C)C1=O` [Example 2, 2,3,5-trimethyl-6-(9,9,9-trifluorononyl)cyclohexa-2,5-diene-1,4-dione], the values for the EC50 in assay [1] and in assay [2] (setting [3]) were 500 to 1000 nM and 100 to 500 nM, respectively. As to `COCCCCCCCCC1=C(C)C(=O)C(C)=C(C)C1=O` [Example 3, 2-(8-methoxyoctyl)-3,5,6-trimethylcyclohexa-2,5-diene-1,4-dione], the EC50 in assay [1] was 500 to 1000 nM; in assay [2] (setting [3]) it was 100 to 500 nM. Taken in the same sequence, the figures for `CC1=C(C)C(=O)C(CCCCCCCCCCC(F)(F)F)=C(C)C1=O` [Example 4, 2,3,5-trimethyl-6-(11,11,11-trifluoroundecyl)cyclohexa-2,5-diene-1,4-dione] were below 500 nM and below 100 nM. For `CC1=C(C)C(=O)C(CCCCCCCCCCOCC(F)(F)F)=C(C)C1=O` [Example 5, 2,3,5-trimethyl-6-(10-(2,2,2-trifluoroethoxy)decyl)cyclohexa-2,5-diene-1,4-dione], the results for the EC50 in assay [1] and in assay [2] (setting [3]) were below 500 nM and below 100 nM, respectively. Taken in the same sequence, the figures for `COCCCCCCCCCCC1=C(C)C(=O)C(C)=C(C)C1=O` [Example 6, 2-(10-methoxydecyl)-3,5,6-trimethylcyclohexa-2,5-diene-1,4-dione] were 500 to 1000 nM and below 100 nM. Taken in the same sequence, the figures for `CC1=C(C)C(=O)C(C(C)C)=C(CCCCCCCCCCC(F)(F)F)C1=O` [Example 7, 2-isopropyl-5,6-dimethyl-3-(11,11,11-trifluoroundecyl)cyclohexa-2,5-diene-1,4-dione] were below 500 nM and 100 to 500 nM. With `CC1=C(C)C(=O)C(NS(C)(=O)=O)=C(CCCCCCCCCCC(F)(F)F)C1=O` [Example 8, N-(4,5-dimethyl-3,6-dioxo-2-(11,11,11-trifluoroundecyl)cyclohexa-1,4-dien-1-yl)methanesulfonamide], the EC50 in assay [2] (setting [3]) is below 100 nM. Turning to `CC1=C(C)C(=O)C(CCCCCCCCCCOC(C)C)=C(C)C1=O` [Example 9, 2-(10-isopropoxydecyl)-3,5,6-trimethylcyclohexa-2,5-diene-1,4-dione], the EC50 in assay [2] (18 h) is below 100 nM. For the compound `CCOCCCCCCCCC1=C(C)C(=O)C(C)=C(C)C1=O` [Example 10, 2-(8-ethoxyoctyl)-3,5,6-trimethylcyclohexa-2,5-diene-1,4-dione], the EC50 in assay [2] (18 h) is below 100 nM. On the same count and under the same terms, under `CC1=C(C)C(=O)C(CCCCCCCCCCOCC(C)C)=C(C)C1=O` [Example 11, 2-(10-isobutoxydecyl)-3,5,6-trimethylcyclohexa-2,5-diene-1,4-dione] stands below 100 nM; under `CCCOCCCCCCCCCCC1=C(C)C(=O)C(C)=C(C)C1=O` [Example 12, 2,3,5-trimethyl-6-(10-propoxydecyl)cyclohexa-2,5-diene-1,4-dione], below 100 nM.

For the compound `CC1=C(C)C(=O)C(CCCCCCCCCCOc2ccccc2)=C(C)C1=O` [Example 13, 2,3,5-trimethyl-6-(10-phenoxydecyl)cyclohexa-2,5-diene-1,4-dione], the 50% effective concentration (EC50) in assay [2] (18 h) is below 100 nM.

Take `CC1=C(C)C(=O)C(CCCCCCCCOC(C)C)=C(C)C1=O` [Example 14, 2-(8-isopropoxyoctyl)-3,5,6-trimethylcyclohexa-2,5-diene-1,4-dione]: the EC50 in assay [2] (18 h) was below 100 nM. Same read-out and setting: to `COCCCCCCC1=C(C)C(=O)C(C)=C(C)C1=O` [Example 15, 2-(6-methoxyhexyl)-3,5,6-trimethylcyclohexa-2,5-diene-1,4-dione] belongs 100 to 500 nM. Take `CCOCCCCCCCCCCC1=C(C)C(=O)C(C)=C(C)C1=O` [Example 16, 2-(10-ethoxydecyl)-3,5,6-trimethylcyclohexa-2,5-diene-1,4-dione]: the EC50 in assay [2] (setting [3]) is below 100 nM. On the same count and under the same terms, under `CCCOCCCCCCCCC1=C(C)C(=O)C(C)=C(C)C1=O` [Example 17, 2,3,5-trimethyl-6-(8-propoxyoctyl)cyclohexa-2,5-diene-1,4-dione] stands below 100 nM. Regarding `CC1=C(C)C(=O)C(CCCCCCCCOCC(C)C)=C(C)C1=O` [Example 18, 2-(8-isobutoxyoctyl)-3,5,6-trimethylcyclohexa-2,5-diene-1,4-dione], the EC50 in assay [2] (18 h) was below 100 nM. On to `CC1=C(C)C(=O)C(CCCCCCCCOc2cccnc2C)=C(C)C1=O` [Example 19, 2,3,5-trimethyl-6-(8-((2-methylpyridin-3-yl)oxy)octyl)cyclohexa-2,5-diene-1,4-dione], for which, in assay [2] (18 h), the EC50 lay in the range of 100 to 500 nM.

With `CC1=C(C)C(=O)C(CCCCCCCCCCN(C)CC(C)C)=C(C)C1=O` [Example 20, 2-(10-(isobutyl(methyl)amino)decyl)-3,5,6-trimethylcyclohexa-2,5-diene-1,4-dione], the EC50 in assay [2] (setting [3]) is below 100 nM. Same read-out and setting: under `CC1=C(C)C(=O)C(CCCCCCCCCCN2CCCC2)=C(C)C1=O` [Example 21, 2,3,5-trimethyl-6-(10-(pyrrolidin-1-yl)decyl)cyclohexa-2,5-diene-1,4-dione] stands below 100 nM. For `CC1=C(C)C(=O)C(CCCCCCCCCCNCC(C)C)=C(C)C1=O` [Example 22, 2-(10-(isobutylamino)decyl)-3,5,6-trimethylcyclohexa-2,5-diene-1,4-dione], in assay [2] (18 h), the EC50 was below 100 nM. As for `CC(C)=CCC/C(C)=C/CC/C(C)=C/CC/C(C)=C/CC1=C(C)C(=O)c2ccccc2C1=O` [Vitamin K2, reference compound], the “rescue of cystine deprivation-induced reduction in cell viability” value in assay [1] (1 micromolar, defined as 100% relative viability) is given as “completely rescued”.

The term EC50 denotes the midpoint of the concentration-response curve.
